Measurements published in patent publication US20030139391A1 (priority 2000, published 2003).

System: patients
Assay: ADAS-cog in earlier study with quicker titration
Format: in vivo, human
Conditions: for ADAS-cog: Actual Drug Mean (SE): raw mean
Method: An improvement in tolerability at this dose was seen, but this dose was suboptimal from an efficacy standpoint.
Statistical analysis of the results of the ADAS-cog score is shown below in Table 7. […] This indicated a significant improvement of the patients' cognitive function at this dose level. The treatment with 36 mg/day in this study was terminated at an early point and thus there was insufficient information for a well defined comparison with the placebo.

For `COc1ccc2c3c1O[C@H]1C[C@@H](O)C=C[C@@]31CCN(C)C2` [GAL, galantamine], the “ADAS-cog: Mean estimate GAL-Placebo Difference” value (18 mg/day) was −1.69, the “ADAS-cog: Z, measure of advantage of galantamine over placebo” value (shortened to “ADAS-cog: Z, measure … over placebo”) (18 mg/day) was 9.9 and the “ADAS-cog: Actual Drug Mean (SE)” value (18 mg/day) was 0.5 (0.70). The “ADAS-cog: Mean estimate GAL-Placebo Difference” value (24 mg/day) was −3.34, the “ADAS-cog: Z, measure … over placebo” value (24 mg/day) was 13.4 and the “ADAS-cog: Actual Drug Mean (SE)” value (24 mg/day) was 0.7 (0.9). The “ADAS-cog: Mean estimate GAL-Placebo Difference” value (36 mg/day) was −1.93, the “ADAS-cog: Z, measure … over placebo” value (36 mg/day) was 7.8 and the “ADAS-cog: Actual Drug Mean (SE)” value (36 mg/day) was 1.1 (0.9).
